# According to PubChem BioAssay AID330 (DTP/NCI, 2004):
# “And” between values parts separate entries of the source, which are not always exact repeats. Identical values can stand only once. Inconclusive results and toxic doses are left out.
# Test system: P388 leukemia ip, CD2F1 mice, survival T/C
# Assay: NCI In Vivo Anticancer Drug Screen. Data for tumor model P388 Leukemia (intraperitoneal) in CD2F1 (CDF1) mice
# Conditions: endpoint: median survival time, higher = longer survival
# In short: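 Mice carrying the transplanted tumor received test compound or vehicle. Survival was recorded in each group, and the value is the treated-group measurement divided by that of the vehicle-treated control group.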
# [1] = dose: 10.0 mg/kg/injection, schedule: Q01DX009 (ip), vehicle: saline with Tween-80
# [2] = dose: 12.5 mg/kg/injection, schedule: Q01DX009 (ip), vehicle: saline with Tween-80
# [3] = dose: 25.0 mg/kg/injection, schedule: Q01DX009 (ip), vehicle: saline with Tween-80
# [4] = dose: 50.0 mg/kg/injection, schedule: Q01DX009 (ip), vehicle: saline with Tween-80
# [5] = dose: 200.0 mg/kg/injection, schedule: Q01DX009 (ip), vehicle: saline with Tween-80
# [6] = dose: 100.0 mg/kg/injection, schedule: Q01DX009 (ip), vehicle: saline with Tween-80
# [7] = dose: 60.0 mg/kg/injection, schedule: Q01DX005 (ip), vehicle: saline with Tween-80
# [8] = dose: 120.0 mg/kg/injection, schedule: Q01DX005 (ip), vehicle: saline with Tween-80
# [9] = dose: 240.0 mg/kg/injection, schedule: Q01DX005 (ip), vehicle: saline with Tween-80
# [10] = dose: 50.0 mg/kg/injection, schedule: Q01DX009 (ip), vehicle: suspension in saline
# [11] = dose: 100.0 mg/kg/injection, schedule: Q01DX009 (ip), vehicle: suspension in saline
# [12] = dose: 200.0 mg/kg/injection, schedule: Q01DX009 (ip), vehicle: suspension in saline
# [13] = dose: 50.0 mg/kg/injection, schedule: Q01DX005 (ip), vehicle: saline with Tween-80
# [14] = dose: 100.0 mg/kg/injection, schedule: Q01DX005 (ip), vehicle: saline with Tween-80
# [15] = dose: 200.0 mg/kg/injection, schedule: Q01DX005 (ip), vehicle: saline with Tween-80
# [16] = dose: 50.0 mg/kg/injection, schedule: Q01DX009 (ip), vehicle: Klucel (hydroxypropylcellulose) (HPC)
# [17] = dose: 100.0 mg/kg/injection, schedule: Q01DX009 (ip), vehicle: Klucel (hydroxypropylcellulose) (HPC)
smiles,measurement,setting,value
O=C1C=C(C/C=C/c2ccccc2)C(C/C=C/c2ccccc2)C=C1O (centres undefined),T/C,"dose: 0.32 mg/kg/injection, schedule: Q01DX009 (ip), vehicle: saline with Tween-80",102 % of control
same,T/C,"dose: 0.63 mg/kg/injection, schedule: Q01DX009 (ip), vehicle: saline with Tween-80",107 % of control
same,T/C,"dose: 1.25 mg/kg/injection, schedule: Q01DX009 (ip), vehicle: saline with Tween-80",103 % of control
same,T/C,"dose: 2.5 mg/kg/injection, schedule: Q01DX009 (ip), vehicle: saline with Tween-80",102 % of control and 93 % of control
same,T/C,[1],94 % of control
OC1(C#Cc2ccccc2)c2ccccc2C(O)(C#Cc2ccccc2)c2c(C#Cc3ccccc3)cccc21 (centres undefined),T/C,[2],87 % of control
same,T/C,[3],95 % of control
same,T/C,[4],97 % of control
same,T/C,[5],86 % of control
c1cnc2c(c1)Sc1ncccc1S2,T/C,[4],96 % of control
same,T/C,[6],92 % of control
[Mn].[NH-]C(CSSCC(N)C(=O)O)C(=O)O (centres undefined),T/C,"dose: 100.0 mg/kg/injection, schedule: Q04DX003 (ip), vehicle: saline",97 % of control
same,T/C,"dose: 200.0 mg/kg/injection, schedule: Q04DX003 (ip), vehicle: saline",114 % of control
same,T/C,"dose: 400.0 mg/kg/injection, schedule: Q04DX003 (ip), vehicle: saline",106 % of control
CCCCCN(CCCCC)CCCCC,T/C,[3],86 % of control
same,T/C,[4],98 % of control
same,T/C,[6],101 % of control
same,T/C,[5],88 % of control
C/C(=N\Oc1ncc([N+](=O)[O-])c(O/N=C(\C)c2ccccc2)n1)c1ccccc1,T/C,[7],100 % of control
same,T/C,[8],88 % of control
same,T/C,[9],91 % of control
O=C(O)C1CSC(c2ccc(Cl)cc2)N1 (centres undefined),T/C,[10],95 % of control
same,T/C,[11],95 % of control
same,T/C,[12],95 % of control and 96 % of control
COc1ccccc1-n1c(C)nc2[nH]ncc2c1=O,T/C,"dose: 50.0 mg/kg/injection, schedule: Q01DX005 (ip), vehicle: Klucel (hydroxypropylcellulose) (HPC)",101 % of control
same,T/C,"dose: 100.0 mg/kg/injection, schedule: Q01DX005 (ip), vehicle: Klucel (hydroxypropylcellulose) (HPC)",97 % of control
same,T/C,"dose: 200.0 mg/kg/injection, schedule: Q01DX005 (ip), vehicle: Klucel (hydroxypropylcellulose) (HPC)",96 % of control
C=C1N(C)c2ccccc2C1(C)C,T/C,"dose: 4.0 mg/kg/injection, schedule: Q01DX009 (ip), vehicle: saline with Tween-80",113 % of control
same,T/C,"dose: 5.9 mg/kg/injection, schedule: Q01DX009 (ip), vehicle: saline with Tween-80",123 % of control
same,T/C,"dose: 9.0 mg/kg/injection, schedule: Q01DX009 (ip), vehicle: saline with Tween-80",110 % of control
same,T/C,"dose: 13.0 mg/kg/injection, schedule: Q01DX009 (ip), vehicle: saline with Tween-80",108 % of control and 118 % of control
same,T/C,"dose: 19.0 mg/kg/injection, schedule: Q01DX009 (ip), vehicle: saline with Tween-80",106 % of control
same,T/C,"dose: 29.0 mg/kg/injection, schedule: Q01DX009 (ip), vehicle: saline with Tween-80",109 % of control
same,T/C,"dose: 45.0 mg/kg/injection, schedule: Q01DX009 (ip), vehicle: saline with Tween-80",115 % of control
CC(N)C1CCC2C3CC=C4CC(N)CCC4(C)C3CCC12C (centres undefined),T/C,[1],112 % of control
same,T/C,"dose: 20.0 mg/kg/injection, schedule: Q01DX009 (ip), vehicle: saline with Tween-80",94 % of control
CCOC(=O)Cn1cc([N+](=O)[O-])sc1=NC(=O)c1ccco1,T/C,"dose: 100.0 mg/kg/injection, schedule: Q01DX001 (ip), vehicle: Klucel (hydroxypropylcellulose) (HPC)",90 % of control
same,T/C,"dose: 200.0 mg/kg/injection, schedule: Q01DX001 (ip), vehicle: Klucel (hydroxypropylcellulose) (HPC)",98 % of control
same,T/C,"dose: 400.0 mg/kg/injection, schedule: Q01DX001 (ip), vehicle: Klucel (hydroxypropylcellulose) (HPC)",97 % of control
NC(=O)C1=Cc2cccn2-c2ccccc2S1,T/C,"dose: 60.0 mg/kg/injection, schedule: Q01DX005 (ip), vehicle: Klucel (hydroxypropylcellulose) (HPC)",105 % of control
same,T/C,"dose: 120.0 mg/kg/injection, schedule: Q01DX005 (ip), vehicle: Klucel (hydroxypropylcellulose) (HPC)",101 % of control
Clc1ccc2c(N3CCC(CCC4CCN(c5ncnc6cc(Cl)ccc56)CC4)CC3)ncnc2c1,T/C,[13],96 % of control
same,T/C,[14],94 % of control
same,T/C,[15],88 % of control
Oc1ccccc1O.[O-]c1ccccc1[O-].[O-]c1ccccc1[O-].[O]=[V+2],T/C,"dose: 5.0 mg/kg/injection, schedule: Q01DX009 (ip), vehicle: saline",100 % of control
same,T/C,"dose: 5.0 mg/kg/injection, schedule: Q04DX003 (ip), vehicle: saline",95 % of control
same,T/C,"dose: 10.0 mg/kg/injection, schedule: Q01DX009 (ip), vehicle: saline",90 % of control
same,T/C,"dose: 10.0 mg/kg/injection, schedule: Q04DX003 (ip), vehicle: saline",118 % of control
same,T/C,"dose: 20.0 mg/kg/injection, schedule: Q04DX003 (ip), vehicle: saline",100 % of control
C[CH2][Sn]([CH2]C)([S]c1nc(O)cc(=O)[nH]1)[S]c1nc(O)cc(=O)[nH]1,T/C,"dose: 1.56 mg/kg/injection, schedule: Q01DX005 (ip), vehicle: Klucel (hydroxypropylcellulose) (HPC)",107 % of control
same,T/C,"dose: 3.12 mg/kg/injection, schedule: Q01DX005 (ip), vehicle: Klucel (hydroxypropylcellulose) (HPC)",113 % of control and 119 % of control
same,T/C,"dose: 6.25 mg/kg/injection, schedule: Q01DX005 (ip), vehicle: Klucel (hydroxypropylcellulose) (HPC)",118 % of control
S=C(Nc1ccc(Br)cc1)SCc1ccc(Cl)cc1,T/C,[10],97 % of control
same,T/C,[11],105 % of control
same,T/C,[12],119 % of control
CCCCCCCCCCCCCCCC(=O)OCC(CO)OC(=O)CCCCCCCCCCCCCCC (centres undefined),T/C,[16],91 % of control
same,T/C,[17],87 % of control
same,T/C,"dose: 200.0 mg/kg/injection, schedule: Q01DX009 (ip), vehicle: Klucel (hydroxypropylcellulose) (HPC)",89 % of control
CCCCCCCC1(O)OC(=O)C(C)=C1C (centres undefined),T/C,"dose: 12.5 mg/kg/injection, schedule: Q04DX003 (ip), vehicle: saline with Tween-80",101 % of control
same,T/C,"dose: 25.0 mg/kg/injection, schedule: Q04DX003 (ip), vehicle: saline with Tween-80",108 % of control
same,T/C,"dose: 50.0 mg/kg/injection, schedule: Q04DX003 (ip), vehicle: saline with Tween-80",100 % of control
Oc1ccc2c3c1OC1C(=NN=C4CCC5(O)C6Cc7ccc(O)c8c7C5(CCN6CC5CC5)C4O8)CCC4(O)C(C2)N(CC2CC2)CCC314 (centres undefined),T/C,[13],91 % of control
same,T/C,[14],98 % of control
same,T/C,[15],99 % of control
Nc1ccc(C(=O)NO)cc1,T/C,"dose: 25.0 mg/kg/injection, schedule: Q01DX009 (ip), vehicle: suspension in saline",99 % of control
same,T/C,[10],99 % of control
same,T/C,[11],96 % of control
same,T/C,[12],109 % of control
CC(C)N=C(C1=C(O)c2ccccc2C1=O)c1ccccc1,T/C,"dose: 25.0 mg/kg/injection, schedule: Q04DX002 (ip), vehicle: saline with Tween-80",100 % of control
same,T/C,"dose: 50.0 mg/kg/injection, schedule: Q04DX002 (ip), vehicle: saline with Tween-80",104 % of control
same,T/C,"dose: 100.0 mg/kg/injection, schedule: Q04DX002 (ip), vehicle: saline with Tween-80",100 % of control
COc1cc(/C=N/NC(=O)CNC(=O)c2ccccc2)ccc1O,T/C,[7],93 % of control
same,T/C,[8],95 % of control
same,T/C,[9],94 % of control
O=C1c2cc([N+](=O)[O-])cc3cc([N+](=O)[O-])cc(c23)C(=O)N1CCNCCN1C(=O)c2cc([N+](=O)[O-])cc3cc([N+](=O)[O-])cc(c23)C1=O,T/C,[13],100 % of control and 123 % of control
same,T/C,[14],107 % of control
same,T/C,[15],105 % of control and 88 % of control
C=C(C)C(=NC(C)(C)C)Nc1ccccc1,T/C,"dose: 10.0 mg/kg/injection, schedule: Q01DX005 (ip), vehicle: saline",119 % of control
same,T/C,"dose: 12.5 mg/kg/injection, schedule: Q01DX009 (ip), vehicle: Klucel (hydroxypropylcellulose) (HPC)",121 % of control
same,T/C,[2],116 % of control
same,T/C,"dose: 25.0 mg/kg/injection, schedule: Q01DX009 (ip), vehicle: Klucel (hydroxypropylcellulose) (HPC)",106 % of control
same,T/C,[16],107 % of control
same,T/C,"dose: 100.0 mg/kg/injection, schedule: Q01DX005 (ip), vehicle: saline",152 % of control
same,T/C,[17],107 % of control
